The test system of experiment [1] is adjuvant-induced arthritis. Description: inhibition of adjuvant-induced arthritis test (A.A.). Format: in vivo. The settings on record: oral; for A.A. percent inhibition (in brackets): corn oil vehicle; for A.A. percent inhibition (in parentheses): second experiment. As to the method:
(§1) Anti-inflammatory activity was determined using (1) the inhibition of carrageenin-induced foot edema test essentially described by Winter et al., Proc. Soc. Exp. Biol. and Med. 111, 554 (1962) as modified by Van Arman et al., J. Pharmacol. Exptl. Therap. 150, 328 (1965) and (2) a modification of the inhibition of adjuvant-induced arthritis test described by Pierson, J. Chronic Diseases 16, 863 (1963) and Glenn et al., Am. J. Vet. Res. 26, 1180 (1965).
(§2) The N-{2-,3- and 4-[R1 -(phenyl)-C(=X)]-phenyl-lower-alkyl}amines of formulas I, Ia and Ib of the invention have been tested in the carrageenin edema (CE) and adjuvant arthritis (AA) tests and found to have anti-inflammatory activity. For comparative purposes, data obtained in the carrageenin edema test on the reference compound (designated "Ref."), 4[(3-benzoylphenyl)methyl]morpholine, disclosed in French Patent 1,549,342, are also given. All data were obtained on oral administration.

Experiment [2] has as its system carrageenin-induced foot edema. Briefly: inhibition of carrageenin-induced foot edema test (C.E.). The settings on record: oral; for inhibition in vivo at 4 µmol/kg: dose 0.004 millimoles/kg; for inhibition in vivo at 20 µmol/kg: dose 0.02 millimoles/kg; for C.E. percent inhibition (Table B): formula V amides. Format: in vivo. As to the method: as §1, §2
For orientation: The carrageenan paw model is a standard test of acute inflammation.

[3] abbreviates: read-out: C.E. percent inhibition.
Setting [4] is: dose 0.08 millimoles/kg, read-out: C.E. percent inhibition.
[5] abbreviates: dose 0.324 millimoles/kg, read-out: C.E. percent inhibition.

Each structure is given as a SMILES string. Structures can show the parent of a compound that is named as a salt.

Regarding `CC(CN1CCCCC1CC1CCCCC1)c1cccc(C(=O)c2ccccc2)c1.Cl` (single isomer, unassigned) [14(a), 2-cyclohexylmethyl-1-[2-(3-benzoylphenyl)propyl]piperidine hydrochloride], the “A.A. percent inhibition (in brackets)” value in experiment [1] (dose 0.0013 millimoles/kg) amounted to 0%; in experiment [1] (dose 0.005 millimoles/kg) it was 39%; in experiment [1] (dose 0.02 millimoles/kg), 65%. Also, the results for the “A.A. percent inhibition (in parentheses)” value in experiment [1] (dose 0.0013 millimoles/kg), in experiment [1] (dose 0.005 millimoles/kg) and in experiment [1] (dose 0.02 millimoles/kg) were 28%, 46% and 87%, respectively. In addition, in experiment [1] (dose 0.0013 millimoles/kg, read-out: A.A. percent inhibition), the inhibition in vivo at 1.3 µmol/kg was 16%. Besides, the inhibition in vivo at 5 µmol/kg in experiment [1] (dose 0.005 millimoles/kg, read-out: A.A. percent inhibition) is 46%. For the same compound, the inhibition in vivo at 20 µmol/kg in experiment [1] (dose 0.02 millimoles/kg, read-out: A.A. percent inhibition) is 79%.
For `OC(c1ccccc1)c1cccc(CCN2CCCCC2CC2CCCCC2)c1` (stereo not drawn) [Example 1A, 2-Cyclohexylmethyl-1-{2-[3-(α-hydroxybenzyl)phenyl]ethyl}piperidine], in experiment [2] (setting [3]), the inhibition in vivo at 4 µmol/kg came to 0% and the inhibition in vivo at 20 µmol/kg was 0%. The inhibition in vivo at 80 µmol/kg in experiment [2] (setting [4]) was determined as 51%. Moreover, in experiment [2] (setting [5]), the inhibition in vivo at 324 µmol/kg is 62%.
Take `O=C(c1ccccc1)c1cccc(CCN2CCOCC2)c1` [Example 1C, 4-[2-(3-Benzoylphenyl)ethyl]morpholine hydrochloride monohydrate]: the inhibition in vivo at 80 µmol/kg in experiment [2] (setting [4]) is 40%. In experiment [2] (setting [5]), the inhibition in vivo at 324 µmol/kg came out at 77%.
In the case of `CN(C)CCCNCCc1cccc(C(=O)c2ccccc2)c1` [Example 1D, N-[2-(3-Benzoylphenyl)ethyl]-N-(3-dimethylaminopropyl)amine dihydrochloride hemi-hydrate], in experiment [2] (setting [4]), the inhibition in vivo at 80 µmol/kg came out at 36%. In addition, in experiment [2] (setting [5]), the inhibition in vivo at 324 µmol/kg came to 65%.
`CC(C(=O)N1CCN(C2CCCC2)CC1)c1cccc(C(=O)c2ccccc2)c1.Cl` (stereo not drawn) [Example 1J, 4-Cyclopentyl-1-[α-(3-benzoylphenyl)propionyl]piperazine hydrochloride]: the “C.E. percent inhibition (Table B)” value in experiment [2] (dose 0.08 millimoles/kg) is given as 18%; in experiment [2] (dose 0.324 millimoles/kg), 72%.
Regarding `CC(CN1CCCCC1CC1CCCCC1)c1cccc(C(O)c2cccc(Cl)c2)c1` (stereo not drawn) [Example 3A, 2-Cyclohexylmethyl-1-{2-[3-(α-hydroxy-3-chlorobenzyl)phenyl]propyl}piperidine], in experiment [2] (setting [3]), the inhibition in vivo at 4 µmol/kg was 0% and the inhibition in vivo at 20 µmol/kg was 0%. Also, in experiment [2] (setting [4]), the inhibition in vivo at 80 µmol/kg came to 34%. Also, the inhibition in vivo at 324 µmol/kg in experiment [2] (setting [5]) was 75%.
As to `CC(CN1CCCCC1CCCC1CCCCC1)c1cccc(C(O)c2ccccc2)c1` (stereo not drawn) [Example 3E, 2-(3-Cyclohexylpropyl)-1-{2-[3-(α-hydroxybenzyl)phenyl]propyl}piperidine], in experiment [2] (setting [3]), the inhibition in vivo at 4 µmol/kg was 14% and the inhibition in vivo at 20 µmol/kg was 34%.
As to `Cc1ccc(C(O)c2cccc(C(C)CN3CCCCC3CC3CCCCC3)c2)cc1` (stereo not drawn) [Example 4, 2-cyclohexylmethyl-1-{2-[3-(α-hydroxy-4-methylbenzyl)phenyl]propyl}piperidine], in experiment [2] (setting [3]), the inhibition in vivo at 4 µmol/kg was 0% and the inhibition in vivo at 20 µmol/kg stood at 1%. In addition, the inhibition in vivo at 80 µmol/kg in experiment [2] (setting [4]) was 18%. The inhibition in vivo at 324 µmol/kg in experiment [2] (setting [5]) was 72%.
For `CC(CN1CCCCC1CC1CCCCC1)c1cccc(C(O)c2c(Cl)cccc2Cl)c1` (stereo not drawn) [Example 5A, 2-Cyclohexylmethyl-1-{2-[3-(α-hydroxy-2,6-dichlorobenzyl)phenyl]propyl}piperidine], in that order: 0%, 0%, 58% and 68%.
On to `CC(CN1CCCCC1CC1CCCCC1)c1cccc(C(C)(O)c2ccccc2)c1` (stereo not drawn) [Example 6, 2-cyclohexylmethyl-1-{2-[3-(α-hydroxy-α-methylbenzyl)phenyl]propyl}piperidine], for which, in experiment [2] (setting [3]), the inhibition in vivo at 4 µmol/kg amounted to 14% and the inhibition in vivo at 20 µmol/kg turned out to be 5%. In addition, in experiment [2] (setting [4]), the inhibition in vivo at 80 µmol/kg amounted to 28%. The inhibition in vivo at 324 µmol/kg in experiment [2] (setting [5]) came out at 55%.
For `Cc1ccc(C(=O)c2cccc(C(C)CN3CCCCC3CC3CCCCC3)c2)cc1` (centres unmarked) [Example 7C, 2-Cyclohexylmethyl-1-{2-[3-(4-methylbenzoyl)phenyl]propyl}piperidine], in that order: 0%, 10%, 58% and 75%.
For the compound `CC1CN(CC(C)c2cccc(C(=O)c3ccccc3)c2)CC(C)O1` (centres unmarked) [Example 7J, 2,6-Dimethyl-4-[2-(3-benzoylphenyl)propyl]morpholine cyclohexanesulfamate], the inhibition in vivo at 80 µmol/kg in experiment [2] (setting [4]) was 62%. Also, the inhibition in vivo at 324 µmol/kg in experiment [2] (setting [5]) was found to be 66%.
On to `Cc1ccccc1C(=O)c1cccc(C(C)CN2CCCCC2CC2CCCCC2)c1` (centres unmarked) [Example 8, 2-cyclohexylmethyl-1-{2-[3-(2-methylbenzoyl)phenyl]propyl}piperidine], for which, in experiment [2] (setting [3]), the inhibition in vivo at 4 µmol/kg is 2% and the inhibition in vivo at 20 µmol/kg amounted to 21%. Moreover, in experiment [2] (setting [4]), the inhibition in vivo at 80 µmol/kg is 33%. Further, the inhibition in vivo at 324 µmol/kg in experiment [2] (setting [5]) was determined as 68%.
Taken in the same sequence, the figures for `Cc1cccc(C(=O)c2cccc(C(C)CN3CCCCC3CC3CCCCC3)c2)c1` (centres unmarked) [Example 9, 2-cyclohexylmethyl-1-{2-[3-(3-methylbenzoyl)phenyl]propyl}piperidine] were 0%, 0%, 21% and 47%.
For `CC(CN1CCCCC1CC1CCCCC1)c1cccc(C(C)c2ccccc2)c1` (stereo not drawn) [Example 11, 2-cyclohexylmethyl-1-{2-[3-(α-methylbenzyl)phenyl]propyl}piperidine], in that order: 0%, 15%, 29% and 64%.
Take `ON=C(c1ccccc1)c1cccc(CCN2CCOCC2)c1` [Example 15A, 4-[2-(3-Benzoylphenyl)ethyl]morpholine oxime]: the inhibition in vivo at 80 µmol/kg in experiment [2] (setting [4]) came to 27%. In addition, in experiment [2] (setting [5]), the inhibition in vivo at 324 µmol/kg amounted to 29%.
Take `NC(c1ccccc1)c1cccc(CCN2CCOCC2)c1` (stereo not drawn) [Example 16A, 4-{2-[3-(α-Aminobenzyl)phenyl]ethyl}morpholine dihydrochloride]: the inhibition in vivo at 80 µmol/kg in experiment [2] (setting [4]) was 27%. Besides, the inhibition in vivo at 324 µmol/kg in experiment [2] (setting [5]) was found to be 39%.
Taken in the same sequence, the figures for `CC(CN1CCOCC1)c1cccc(C(N)c2ccccc2)c1` (stereo not drawn) [Example 16C, 4-{2-[3-(α-Aminobenzyl)phenyl]propyl}morpholine dihydrochloride] were 49% and 84%.
`C=C(c1ccccc1)c1cccc(C(C)CN2CCCCC2CC2CCCCC2)c1` (centres unmarked) [Example 17, 2-cyclohexylmethyl-1-{2-[3-(1-phenyl-1-vinyl)phenyl]propyl}piperidine]: in experiment [2] (setting [3]), the inhibition in vivo at 4 µmol/kg came to 9% and the inhibition in vivo at 20 µmol/kg is 16%. Also, in experiment [2] (setting [4]), the inhibition in vivo at 80 µmol/kg was found to be 47%. The inhibition in vivo at 324 µmol/kg in experiment [2] (setting [5]) came to 67%.
With `O=C(c1ccccc1)c1cccc(CCN2CCCCC2CC2CCCCC2)c1` (centres unmarked) [Example 20A, 2-Cyclohexylmethyl-1-[2-(3-benzoylphenyl)ethyl]piperidine], the inhibition in vivo at 20 µmol/kg in experiment [2] (setting [3]) came to 25%. Further, the inhibition in vivo at 40 µmol/kg in experiment [2] (dose 0.04 millimoles/kg, read-out: C.E. percent inhibition) was 9%. In addition, the inhibition in vivo at 80 µmol/kg in experiment [2] (setting [4]) came to 46%. The inhibition in vivo at 324 µmol/kg in experiment [2] (setting [5]) was 70%.
Take `CC(CN1CCCCC1CC1CCCCC1)c1cccc(C(=O)c2cccc(Cl)c2)c1` (centres unmarked) [Example 20B, 2-Cyclohexylmethyl-1-{2-[3-(3-chlorobenzoyl)phenyl]propyl}piperidine]: in experiment [2] (setting [3]), the inhibition in vivo at 4 µmol/kg is 14% and the inhibition in vivo at 20 µmol/kg stood at 0%. For the same compound, the inhibition in vivo at 80 µmol/kg in experiment [2] (setting [4]) was 22%. Moreover, in experiment [2] (setting [5]), the inhibition in vivo at 324 µmol/kg is 65%.
Taken in the same sequence, the figures for `CC(CN1CCCCC1CC1CCCCC1)c1cccc(C(=O)c2ccc(Cl)c(Cl)c2)c1` (centres unmarked) [Example 20C, 2-Cyclohexylmethyl-1-{2-[3-(3,4-dichlorobenzoyl)phenyl]propyl}piperidine] were 17%, 15%, 19% and 51%.
As for `CC(c1cccc(C(=O)c2ccccc2)c1)N1CCOCC1` (centres unmarked) [Example 21, 4-[1-(3-benzoylphenyl)ethyl]morpholine], in experiment [2] (setting [4]), the inhibition in vivo at 80 µmol/kg amounted to 32%. Also, the inhibition in vivo at 324 µmol/kg in experiment [2] (setting [5]) came out at 46%.
Regarding `CN(C)C(c1ccccc1)c1cccc(CCN2CCOCC2)c1` (stereo not drawn) [Example 22, 4-{2-[3-(α-dimethylaminobenzyl)phenyl]ethyl}morpholine], the inhibition in vivo at 80 µmol/kg in experiment [2] (setting [4]) turned out to be 29%. Further, the inhibition in vivo at 324 µmol/kg in experiment [2] (setting [5]) came out at 63%.
Taken in the same sequence, the figures for `O=C(c1ccccc1)c1cccc(CN2CCOCC2)c1` [Ref., 4[(3-benzoylphenyl)methyl]morpholine, reference compound] were 0% and 23%.

Source of the values: patent US4417052A, “Phenyl-lower-alkyl piperidines and pyrrolidines” (Sterling Drug Inc., priority 1981, dated 1983).
